Reference: patent US20070173450A1, “PROCESS FOR THE SYNCHRONIZATION OF OVULATION FOR TIMED BREEDING WITHOUT HEAT DETECTION” (priority 2003, published 2007)

Tests used:
Format in all cases: in vivo, swine
postpartum sows [1] = test: Single timed deslorelin injection 96 h post-weaning, single timed insemination without estrus detection; settings: 50 mcg deslorelin in SAIB 96 h post-weaning
Description: Approximately 170 postpartum sows were randomly divided into two equal groups comprised of controls and treated. Following weaning, the controls were detected for estrus and bred following the normal standard operating procedures for the farms on which they resided. The treated sows received a 50 mcg dose of deslorelin in SAIB at 96 hours post-weaning and were bred with a single insemination 28+/−2 hours later with no regard to estrus detection. The sows were examined for pregnancy by ultrasound at 21 days and slaughtered around 28 days post breeding. The entire reproductive tract was removed and corpora lutea and embryos were counted.

postpartum sows [2] = test: Litter size after deslorelin treatment in sows at three farm sites; settings: Tables 3-5, three farm sites, regardless of estrus detection
Description: Postpartum sows were randomly distributed into three different groups comprised of Controls, Treatment 1, and Treatment 2, with the exception of Site 3, which was divided into two groups, Control and Treatment 2. Control sows were detected for estrus following weaning, and bred following the normal standard operating procedures for the farms on which they resided. Treatment 1 sows were detected for estrus following weaning, and received a 50 mcg dose of deslorelin in the morning when standing and were bred by AI 4 hours later and again at 24+/−2 hours later. Treatment 2 sows received a 50 mcg dose of deslorelin in SAIB at 96 or 120 hours post-weaning and were bred with a single insemination 28+/−2 hours later with no regard to estrus detection.

mature postpartum sows = test: Intravulvar deslorelin at estrus detection in mature postpartum sows, AI breeding; settings: live piglets born per litter, treated versus control
Description: Sows were assigned randomly in blocks of two to either control or to be injected intravulvar with 50 mcg of deslorelin in SAIB at the time of estrus detection for sows first detected in estrus in the a.m. and 12 hours later for those first detected in estrus in the p.m. Treated animals were bred AI upon detected estrus and again 24 hours later if still in estrus. Controls received a saline injection on first detected estrus behavior estrus detection and were bred according to the farm's normal procedures.

**Q.** With `CCNC(=O)[C@@H]1CCCN1C(=O)[C@H](CCCN=C(N)N)NC(=O)[C@H](CC(C)C)NC(=O)[C@@H](Cc1c[nH]c2ccccc12)NC(=O)[C@H](Cc1ccc(O)cc1)NC(=O)[C@H](CO)NC(=O)[C@H](Cc1c[nH]c2ccccc12)NC(=O)[C@H](Cc1cnc[nH]1)NC(=O)[C@@H]1CCC(=O)N1` [Deslorelin, deslorelin] as the compound, how does the “Pregnancy Rate” value (postpartum sows [1]; single AI 28+/-2 h later, no estrus detection) read?
**A.** 71%

**Q.** And the “Embryo Survival” value (postpartum sows [1]; slaughter around 28 days post breeding)?
**A.** 64%

**Q.** And the “Sows Pregnant” value (postpartum sows [1]; of 84 in group, single AI 28+/-2 h later, no estrus detection)?
**A.** 60

**Q.** And the “litter sizes (in words)” value (postpartum sows [2])?
**A.** normal litter sizes

**Q.** And the “Live piglet number, Deslorelin versus Saline sows (greater by)” value (mature postpartum sows)?
**A.** Live piglet number 0.6> in Deslorelin versus Saline sows.
